Experimental data taken from ChEMBL document CHEMBL1131037, “Structure-based design, synthesis, and biological evaluation of irreversible human rhinovirus 3C protease inhibitors. 2. Peptide structure-activity studies” (J Med Chem, 1998).
pEC50: −log10 of the molar value.

Assays:
rhinovirus B14 [1] = test: Antiviral activity against HRV-14 in cell culture; type: functional, organism-based; conditions: Rhinovirus B
rhinovirus B14 [2] = test: Cytotoxic activity against HRV-14 in cell culture; type: functional, rhinovirus 14; conditions: Rhinovirus B
[3] = target: T1, Human rhinovirus A protease (Human rhinovirus sp.) (UniProt Q4U254); test: Binding affinity on human Rhinovirus 3C protease (rhinovirus serotype 14)
T1 sequence (whole entry): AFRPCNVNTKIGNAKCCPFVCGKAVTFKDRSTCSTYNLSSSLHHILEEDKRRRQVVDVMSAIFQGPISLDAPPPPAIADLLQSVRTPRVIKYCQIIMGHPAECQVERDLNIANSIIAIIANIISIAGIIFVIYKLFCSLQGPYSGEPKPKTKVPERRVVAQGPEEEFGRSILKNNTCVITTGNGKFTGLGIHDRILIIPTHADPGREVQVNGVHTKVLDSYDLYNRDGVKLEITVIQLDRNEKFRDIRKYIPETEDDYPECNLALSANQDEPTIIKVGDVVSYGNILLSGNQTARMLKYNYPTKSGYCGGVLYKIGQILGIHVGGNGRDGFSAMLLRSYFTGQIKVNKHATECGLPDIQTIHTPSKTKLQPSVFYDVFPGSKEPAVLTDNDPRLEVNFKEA

SMILES | pEC50 (rhinovirus B14 [1]) | CC50 (rhinovirus B14 [2]) [µM] | K obs / 1 [3] [M⁻¹ s⁻¹]
CCOC(=O)/C=C/[C@H](CNC(C)=O)NC(=O)[C@H](Cc1ccccc1)NC(=O)[C@H](CC(C)C)NC(=O)OCc1ccccc1 | 5.66 | > 320 | 800
CCOC(=O)/C=C/[C@H](CCC(N)=O)NC(=O)[C@H](Cc1ncc[nH]1)NC(=O)[C@H](CC(C)C)NC(=O)OCc1ccccc1 | 4.57 | > 320 | 6800
CCOC(=O)/C=C/[C@H](CCC(N)=O)NC(=O)[C@H](Cc1ccccc1)NC(=O)[C@H](CC(C)C)NC(=O)CO | 4.52 | > 320 | 2100
CCOC(=O)/C=C/[C@H](CCC(N)=O)NC(=O)[C@H](Cc1ccccc1)NC(=O)[C@H](CCc1ccccc1)NC(=O)OCc1ccccc1 | 6.60 | > 320 | 57000
CCOC(=O)/C=C/[C@H](CCC(N)=O)NC(=O)[C@H](Cc1ccccc1)NC(=O)[C@H](CCCCN)NC(=O)OCc1ccccc1 | 3.69 | > 320 | 18600
CCOC(=O)/C=C/[C@H](CCC(N)=O)NC(=O)[C@H](Cc1ccc(OC(C)=O)cc1)NC(=O)[C@H](CC(C)C)NC(=O)OCc1ccccc1 | 4.96 | > 320 | 1200
CCOC(=O)/C=C/[C@H](CCC(N)=O)NC(=O)[C@H](Cc1ccccc1)NC(=O)[C@H](CC(C)C)NC(=O)c1ccc2ccccc2c1 | 6.00 | > 320 | 21000
CCOC(=O)/C=C/[C@H](CCC(N)=O)NC(=O)[C@H](Cc1ccc(C#N)cc1)NC(=O)[C@H](CC(C)C)NC(=O)OCc1ccccc1 | 5.25 | > 320 | 10800
CCOC(=O)/C=C/[C@H](CCC(N)=O)NC(=O)[C@H](Cc1ccccc1)NC(=O)[C@@H](NC(=O)OCc1ccccc1)C(C)C | 6.42 | > 320 | 62500
CCOC(=O)/C=C/[C@H](CCC(N)=O)NC(=O)[C@H](Cc1ccccc1)NC(=O)[C@@H](NC(=O)OCc1ccccc1)C(C)(C)C | 6.49 | 178 | 39800
CCOC(=O)/C=C/[C@H](CCC(N)=O)NC(=O)[C@H](Cc1ccc(OCC)cc1)NC(=O)[C@H](CC(C)C)NC(=O)OCc1ccccc1 | < 3.49 | > 320 | 4200
CCOC(=O)/C=C/[C@H](CCC(N)=O)NC(=O)[C@H](Cc1ccccc1)NC(=O)[C@H](CC(C)C)NC(=O)c1ccc(Oc2ccccc2)cc1 | 5.28 | > 320 | 8000
CCOC(=O)/C=C/[C@H](CCC(N)=O)NC(=O)[C@H](Cc1ccccc1)NC(=O)[C@H](CC(=O)O)NC(=O)OCc1ccccc1 | 5.62 | > 320 | 35000
CCOC(=O)/C=C/[C@H](CCC(N)=O)NC(=O)[C@H](CSCC)NC(=O)[C@H](CC(C)C)NC(=O)OCc1ccccc1 | 5.00 | > 320 | 3000
CCOC(=O)/C=C/[C@H](CCC(N)=O)NC(=O)[C@H](Cc1ccccc1)NC(=O)[C@H](Cc1ccccc1)NC(=O)OCc1ccccc1 | 6.25 | > 320 | 162000
CCOC(=O)/C=C/[C@H](CCC(N)=O)NC(=O)[C@H](Cc1ccccc1)NC(=O)[C@@H](NC(=O)OCc1ccccc1)[C@H](C)SC(C)C | 5.00 | > 100 | 40000
CCOC(=O)/C=C/[C@H](CCC(N)=O)NC(=O)[C@H](Cc1ccccc1)NC(=O)[C@H](CO)NC(=O)OCc1ccccc1 | 5.74 | > 320 | 39900
CCOC(=O)/C=C/[C@H](CCC(N)=O)NC(=O)[C@H](Cc1ccc(COC)cc1)NC(=O)[C@H](CC(C)C)NC(=O)OCc1ccccc1 | 4.41 | > 320 | 7100
CCOC(=O)/C=C/[C@H](CCC(N)=O)NC(=O)[C@H](Cc1ccc(O)cc1)NC(=O)[C@H](CC(C)C)NC(=O)OCc1ccccc1 | 5.28 | > 320 | 11300
CCOC(=O)/C=C/[C@H](CCC(=O)NC(c1ccccc1)(c1ccccc1)c1ccccc1)NC(=O)[C@H](Cc1ccccc1)NC(=O)[C@H](CC(C)C)NC(=O)OCc1ccccc1 | 4.00 | > 320 | 0

SMILES | pEC50 (rhinovirus B14 [1]) | CC50 (rhinovirus B14 [2]) [µM] | K obs / 1 [3] [M⁻¹ s⁻¹]
CCOC(=O)/C=C/[C@H](CCC(N)=O)NC(=O)[C@H](Cc1ccccc1)NC(=O)[C@H](CC(C)C)NC(=O)c1ccccc1 | 5.28 | > 320 | 9600
CCOC(=O)/C=C/[C@H](CCC(N)=O)NC(=O)[C@H](Cc1ccccc1)NC(=O)[C@H](CC1CCCCC1)NC(=O)OCc1ccccc1 | 5.92 | > 320 | 39000
CCOC(=O)/C=C/[C@H](CCC(N)=O)NC(=O)[C@H](Cc1ccccc1)NC(=O)[C@H](CC(C)C)NC(=O)[C@@H](NC(C)=O)C(C)C | 4.20 | > 100 | 26700
CCOC(=O)/C=C/[C@H](CCC(N)=O)NC(=O)[C@H](Cc1ccccc1)NC(=O)[C@H](CC(C)C)NC(=O)OC(C)(C)C | 5.35 | > 100 | 700
CCOC(=O)/C=C/[C@H](CCC(N)=O)NC(=O)[C@H](Cc1ccccc1)NC(=O)[C@H](CSCc1ccccc1)NC(=O)OCc1ccccc1 | 6.70 | > 100 | 97000
CCOC(=O)/C=C/[C@H](CCS(C)(=O)=O)NC(=O)[C@H](Cc1ccccc1)NC(=O)[C@H](CC(C)C)NC(=O)OCc1ccccc1 | < 4.00 | > 100 | 60
CCOC(=O)/C=C/[C@H](CCC(N)=O)NC(=O)[C@H](Cc1ccc(C(N)=O)cc1)NC(=O)[C@H](CC(C)C)NC(=O)OCc1ccccc1 | < 3.75 | 177 | 9600
CCOC(=O)/C=C/[C@H](CCC(N)=O)NC(=O)[C@H](Cc1ccccc1)NC(=O)[C@H](CC(C)C)NC(=O)OCc1ccccc1Cl | 6.20 | > 100 | 19000
CCOC(=O)/C=C/[C@H](CCC(N)=O)NC(=O)[C@H](Cc1ccc(C)cc1)NC(=O)[C@@H](NC(=O)SC1CCCC1)C(C)(C)C | 7.25 |  | 
CCOC(=O)/C=C/[C@H](CCC(N)=O)NC(=O)[C@H](Cc1ccc(CO)cc1)NC(=O)[C@H](CC(C)C)NC(=O)OCc1ccccc1 | 6.26 | > 320 | 82300
CCOC(=O)/C=C/[C@H](CCC(N)=O)NC(=O)[C@H](Cc1ccccc1)NC(=O)[C@H](CC(C)C)NC(=O)SC1CCCC1 | 6.74 | > 100 | 114000
CCOC(=O)/C=C/[C@H](CCC(N)=O)NC(=O)[C@H](Cc1ccccc1)NC(=O)CNC(=O)OCc1ccccc1 | 5.25 | > 320 | 3800
CCOC(=O)/C=C/[C@H](CCC(N)=O)NC(=O)[C@H](C)NC(=O)[C@H](CC(C)C)NC(=O)OCc1ccccc1 | 4.70 | > 320 | 1300
CCOC(=O)/C=C/[C@H](CCC(N)=O)NC(=O)[C@H](Cc1ccccc1)NC(=O)[C@H](CC(C)C)NC(=O)CCO | 4.72 | > 320 | 4500
CCOC(=O)/C=C/[C@H](CC[S+](C)[O-])NC(=O)[C@H](Cc1ccccc1)NC(=O)[C@H](CC(C)C)NC(=O)OCc1ccccc1 (some centres not stated) | 5.80 | > 100 | 2200
CCOC(=O)/C=C/[C@H](CCC(N)=O)NC(=O)[C@H](Cc1ccccc1)NC(=O)[C@H](CC(C)C)NC(=O)NCc1ccccc1 | < 4.00 | > 100 | 6900
CCOC(=O)/C=C/[C@H](COC(N)=O)NC(=O)[C@H](Cc1ccccc1)NC(=O)[C@H](CC(C)C)NC(=O)OCc1ccccc1 | 5.80 | > 320 | 5600
CCOC(=O)/C=C/[C@H](CCC(N)=O)NC(=O)[C@H](Cc1ccccc1)NC(=O)[C@H](CC(C)C)NC(=O)OCc1ccccc1 | 6.27 | > 320 | 
CCOC(=O)/C=C/[C@H](CCC(N)=O)NC(=O)[C@H](Cc1ccccc1)NC(=O)[C@@H](NC(=O)OCc1ccccc1)c1ccccc1 |  |  | 20700
